This note sets out measurements from patent publication US20260242338A1, “CRYSTALS OF N[…]” (KYOTO DRUG DISCOVERY & DEVELOPMENT CO., LTD., priority 2022, published 2026).

The format of this data set is physicochemical. The procedure: X-ray powder diffraction data were acquired using PhotonMax high-flux 9 KW rotating cathode X-ray generator (SmartLab 9 KW, Rigaku). All diffractograms were acquired using copper radiation (CuKα, 45 kV/200 mA, λ=1.5418 Å) and using KB filter to reduce unneeded radiation. The measurement was carried out by placing the sample gently crushed in an agate mortar on a measurement stand and then scanning the sample under 2θscanning conditions with a scanning range of 3° to 40°, a scanning speed of 20°/min, and a step size of 0.02°.
X-ray powder diffraction data were acquired using a diffractometer (MiniFlex 600, Rigaku). All diffractograms were acquired using copper radiation (CuKα, 40 kV/15 mA, λ=1.5418 Å) and using KB filter to reduce unneeded radiation. Scanning was carried out in 2θ with a scanning range of 5° to 50°, a scanning speed of 5°/min, and a step size of 0.02°.
The water content was measured using a coulometric moisture meter (CA-100, Nitto Seiko Analytech), using about 0.5 g of the solid sample, Aquamicron GEX as the solvent, and 3 mg of Aquamicron SS as a titrant.
The water content was measured using a Karl Fischer moisture meter (AQUACOUNTER AQV-2100, HIRANUMA) equipped with an electrolytic bath stirrer for iodine generation and a constant current potentiometer, using about 0.2 g of the solid sample, Aquamicron GEX as the solvent, and 3 mg of Aquamicron SS-Z as a titrant.
The crystal of KUS121 dihydrate was subjected to a normal storage stability test (25° C./60% RH, 18 months) and a storage stability test under accelerated test condition (40° C./75% RH, 6 months). For comparison, the crystal of KUS121 anhydride was also subjected to storage stability tests under accelerated test condition (40° C./75% RH, 6 months) and under ambient temperature condition (30 months).

Setting [1] is: 40° C./75% RH (6 months), dihydrate.

Like-named read-outs stand apart in the source and are kept apart here.

Where the note is “40° C./75% RH (6 months)”, `Cc1cc(F)ccc1-c1ccc(/N=N/c2cc(S(=O)(=O)[O-])c3ccccc3c2N)cn1.[Na+]` [Crystal of KUS121 anhydride, Sodium 4-amino-3-[6-(4-fluoro-2-methylphenyl)pyridin-3-ylazo]naphthalene-1-sulfonate] registered a Content of 100.8%, a Purity test of 99.5% and a Water content of 3.0%. The same molecule gave a Water content (Ambient temperature (30 months)) of 9.1%. Under “Initial”, this molecule registered a Content of 98.2%, a Purity test of 99.5% and a Water content of 0.8%.

In the case of `Cc1cc(F)ccc1-c1ccc(/N=N/c2cc(S(=O)(=O)[O-])c3ccccc3c2N)cn1.[Na+]` [Crystal of KUS121 dihydrate, sodium 4-amino-3-[6-(4-fluoro-2-methylphenyl)pyridin-3-ylazo]naphthalene-1-sulfonate dihydrate], the Content (25° C./60% RH (18 months)) stood at 99.6%; the Content under setting [1] was 99.6%; the Content (Initial, dihydrate) amounted to 99.7%. The Related substance (25° C./60% RH (18 months)) was 0.11%, the Related substance (40° C./75% RH (6 months)) turned out to be 0.09% and the Related substance (Initial) is on record as 0.07%. The Water content is, setting by setting: (25° C./60% RH (18 months)) 7.4%; under setting [1], 7.4%; (Initial, dihydrate) 7.4%. Besides, the “Storage stability (overall statement)” value (compared with other hydrate crystals, accelerated test condition) was “had better storage stability than other hydrate crystals, and was extremely stable even under accelerated test condition”.
